Source: article PMC11212140, “Molecular Bidents with Two Electrophilic Warheads as a New Pharmacological Modality” (ACS Central Science, 2024)

Key:
Assay in all cases: KiNativ profiling in H3255 cells
Format in all cases: cell-based, human
[1] = tested on: T1, MAP3K6; details: 2.5 µM; Lys2; DIKGDNVLINTFSGLLK
T1 construct: purchased ActivX Biosciences (KiNativ)
Protocol: (§1) treatment. Cell viability was determined by using CellTiter-Glo (Promega #G7571) according to the manufacturer’s instructions, measuring luminescence using an Envision plate-reader (PerkinElmer Inc.). Dose-response curves were generated using non-linear regression curve fit in GraphPad Prism 9.2.0(GraphPad Software).
(§2) Cellular target engagement assays
(§3) After 6 hours treatment, cells were pelleted, washed with PBS once and lysed with IP lysis buffer (25mMTris-HCl pH 7.4, 150mM NaCl, 1 mM EDTA, 1% NP-40 and 5% glycerol) (Thermo Fisher Scientific, Cat#87788) containing protease/phosphatase inhibitor cocktail (Roche). The protein concentrations were measured by BCA analysis (Pierce). Cell lysates were incubated with 1 μM of biotin conjugated probe (bio-Osimertinib or bio-ZNL-0013) at 4 ℃ overnight, and incubated for 3 more hours at room temperature. Lysates with probe were then incubated with streptavidin beads (Thermo Fisher, #20349) for 2 hours at 4 ℃. The protein-probe complexes on the beads were then subjected to immunoblotting.
(§4) H3255 cells were plated with 6.5x10^6 per condition in fresh media in 15 cm plates and treated the 80% confluency for 2 hours with DMSO or 2.5 μM of ZNL-0056. To harvest cells, plates were washed 3 times with cold PBS, then collected by scraping into 4 mL of cold PBS containing protease and phosphatase inhibitors. Cells were pelleted by centrifugation at 1350 g at 4 ℃ for 5 minutes and immediately frozen in liquid nitrogen. The frozen samples were sent to ActivX Biosciences (La Jolla, CA) for the remainder of the KiNativ profiling experiment4.
(§5) Protein expression and purification
(§6) Human EGFR kinase domain (residues 696-1022) with T790M and V948R mutations was cloned with an N-terminal, protease cleavable His -GST tag. Recombinant protein was expressed in SF9 insect cells using baculovirus generated from the pFastBac system (Thermo Fisher) .
(§7) Briefly, cells at a density of ~2x10^6 cells/mL were infected with 1% (v/v) virus stock and grown for ~72 hours before harvesting and freezing the cell pellet . Infected cells were lysed in buffer A (50 mM Tris pH 8.0, 500 mM NaCl, 5% glycerol, 0.5 mM Tris(2-carboxyethyl)phosphine [TCEP]), ultracentrifuged at >200,000 rcf for 1 h, and the supernatant flo wed through Ni-NTA resin by gravity. The resin was washed with buffer A supplemented with 40 mM imidazole by […]

[2] = tested on: AMPKa1, AMPKa2; details: 2.5 µM
Protocol: as §1, §2, §3, §4, §5, §6, §7

[3] = tested on: T2, PKN1; details: 2.5 µM; Lys1; VLLSEFRPSGELFAIKALK
T2 construct: purchased ActivX Biosciences (KiNativ)
Protocol: as §1, §2, §3, §4, §5, §6, §7

[4] = tested on: DRAK1, DRAK2; details: 2.5 µM; ATP Loop; GKFAVVR
Protocol: as §1, §2, §3, §4, §5, §6, §7

[5] = tested on: T3, CaMK1a; details: 2.5 µM; Lys1; LVAIKCIAK
T3 construct: purchased ActivX Biosciences (KiNativ)
Protocol: as §1, §2, §3, §4, §5, §6, §7

[6] = tested on: T4, MAP3K5; details: 2.5 µM; Lys2; DIKGDNVLINTYSGVLK
T4 construct: purchased ActivX Biosciences (KiNativ)
Protocol: as §1, §2, §3, §4, §5, §6, §7

[7] = tested on: T5, EphB4; details: 2.5 µM; Activation Loop; FLEENSSDPTYTSSLGGKIPIR
T5 construct: purchased ActivX Biosciences (KiNativ)
Protocol: as §1, §2, §3, §4, §5, §6, §7

[8] = tested on: ROCK1, ROCK2; details: 2.5 µM; Lys2; DVKPDNMLLDK
Protocol: as §1, §2, §3, §4, §5, §6, §7

[9] = tested on: T6, PKR; details: 2.5 µM
T6 construct: purchased ActivX Biosciences (KiNativ)
Protocol: as §1, §2, §3, §4, §5, §6, §7

[10] = tested on: T7, SYK; details: 2.5 µM
T7 construct: purchased ActivX Biosciences (KiNativ)
Protocol: as §1, §2, §3, §4, §5, §6, §7

[11] = tested on: Wnk1, Wnk2; details: 2.5 µM; ATP Loop; GSFKTVYK
Protocol: as §1, §2, §3, §4, §5, §6, §7

[12] = tested on: T8, MAP3K3; details: 2.5 µM; Lys1; ELASKQVQFDPDSPETSKEVSALECEIQLLK
T8 construct: purchased ActivX Biosciences (KiNativ)
Protocol: as §1, §2, §3, §4, §5, §6, §7

[13] = tested on: T9, PIP4K2B; details: 2.5 µM; ATP; AKDLPTFKDNDFLNEGQK
T9 construct: purchased ActivX Biosciences (KiNativ)
Protocol: as §1, §2, §3, §4, §5, §6, §7

[14] = tested on: T10, PIP5K3; details: 2.5 µM; ATP; GGKSGAAFYATEDDRFILK
T10 construct: purchased ActivX Biosciences (KiNativ)
Protocol: as §1, §2, §3, §4, §5, §6, §7

[15] = tested on: T11, GCK; details: 2.5 µM
T11 construct: purchased ActivX Biosciences (KiNativ)
Protocol: as §1, §2, §3, §4, §5, §6, §7

[16] = tested on: PKCa, PKCg; details: 2.5 µM; Other; NLIPMDPNGLSDPYVKLK
Protocol: as §1, §2, §3, §4, §5, §6, §7

[17] = tested on: T12, CDK5; details: 2.5 µM
T12 construct: purchased ActivX Biosciences (KiNativ)
Protocol: as §1, §2, §3, §4, §5, §6, §7

[18] = tested on: T13, PITSLRE; details: 2.5 µM; Lys2; DLKTSNLLLSHAGILK
T13 construct: purchased ActivX Biosciences (KiNativ)
Protocol: as §1, §2, §3, §4, §5, §6, §7

[19] = tested on: T14, RSK1 domain2; details: 2.5 µM; Lys2; DLKPSNILYVDESGNPECLR
T14 construct: RSK1 domain2; purchased ActivX Biosciences (KiNativ)
Protocol: as §1, §2, §3, §4, §5, §6, §7

[20] = tested on: T15, CaMK2d; details: 2.5 µM; Lys1; IPTGQEYAAKIINTKK
T15 construct: purchased ActivX Biosciences (KiNativ)
Protocol: as §1, §2, §3, §4, §5, §6, §7

[21] = tested on: T16, MAP3K4; details: 2.5 µM
T16 construct: purchased ActivX Biosciences (KiNativ)
Protocol: as §1, §2, §3, §4, §5, §6, §7

[22] = tested on: T17, STLK6; details: 2.5 µM; Lys1; HTPTGTLVTIKITNLENCNEER
T17 construct: purchased ActivX Biosciences (KiNativ)
Protocol: as §1, §2, §3, §4, §5, §6, §7

[23] = tested on: T18, MARK2; details: 2.5 µM; Lys1; EVAVKIIDKTQLNSSSLQK
T18 construct: purchased ActivX Biosciences (KiNativ)
Protocol: as §1, §2, §3, §4, §5, §6, §7

[24] = tested on: MST1, MST2; details: 2.5 µM; Lys2; DIKAGNILLNTEGHAK
Protocol: as §1, §2, §3, §4, §5, §6, §7

[25] = Activation Loop, IGDFGLVTSLKNDGKR

Structure (SMILES)	Inhibition [1] [%]	Inhibition ([2]; Lys1, VAVKILNR) [%]	Inhibition ([2]; Lys2, DLKPENVLLDAHMNAK) [%]	Inhibition [3] [%]	Inhibition [4] [%]	Inhibition [5] [%]	Inhibition [6] [%]	Inhibition [7] [%]	Inhibition [8] [%]	Inhibition [9, 25] [%]	Inhibition ([9]; Lys2, DLKPSNIFLVDTK) [%]	Inhibition ([10]; Activation Loop, ISDFGLSKALR) [%]	Inhibition ([10]; Lys1, TVAVKILK) [%]	Inhibition [11] [%]	Inhibition [12] [%]	Inhibition [13] [%]	Inhibition [14] [%]	Inhibition ([15]; Lys1, DTVTSELAAVKIVK) [%]	Inhibition ([15]; Lys2, DIKGANLLLTLQGDVK) [%]	Inhibition [16] [%]	also measured
C=CC(=O)Nc1cc(Nc2nccc(-c3cn(C)c4ccccc34)n2)c(OC)cc1N(C)CCN(C)C [Osimertinib, osimertinib, reference compound]	-16.3	6.4	-33.2	-12.2	13.6	7.0	21.0	19.2	-1.6	-12.9	6.2	-19.6	-0.9	-14.8	10.8	-4.2	49.0	-23.8	15.4	-21.6	Inhibition ([17]; Lys1, NRETHEIVALKR): -40.7%; Inhibition ([17]; Lys2, DLKPQNLLINR): 26.2%; Inhibition [18]: -3.8%; Inhibition [19]: -13.9%; Inhibition [20]: -3.1%; Inhibition ([21]; Lys1, VYTCISVDTGELMAMKEIR): 0.9%; Inhibition ([21]; Lys2, DIKGANIFLTSSGLIK): -3.4%; Inhibition [22]: 12.6%; Inhibition [23]: 7.8%; Inhibition [24]: 17.9%
C=CC(=O)Nc1cc(C(=O)Nc2nc3cccc(C)c3n2[C@@H]2CCCCN(C(=O)C=C)C2)cs1 [ZNL-0056]	20.5	20.9	9.7	8.5	46.6	5.1	-61.4	-4.5	-10.4	11.7	0.451	4.4	4.7	-0.1	-6.3	16.6	20.7	-6.8	0.9	-17.5	Inhibition ([17]; Lys1, NRETHEIVALKR): -65.5%; Inhibition ([17]; Lys2, DLKPQNLLINR): 18.0%; Inhibition [18]: 20.7%; Inhibition [19]: 11.8%; Inhibition [20]: -4.1%; Inhibition ([21]; Lys1, VYTCISVDTGELMAMKEIR): 16.4%; Inhibition ([21]; Lys2, DIKGANIFLTSSGLIK): -19.0%; Inhibition [22]: 16.7%; Inhibition [23]: 25.2%; Inhibition [24]: 16.1%
